Assays:
[1] = test system: Pseudomonas aeruginosa ATCC 27853; assay: Minimum inhibitory concentration (MIC), spotting on Müeller–Hinton agar; assay type: cell-based; conditions: Gram − Ve, P. aeruginosa, 37 °C; for Minimum inhibitory concentration, PA: 18 h; for MIC: Pseudomonas aeruginosa, ATCC27853, 18 h, read-out: Minimum inhibitory concentration, PA
Procedure: (§1) Sterilized Nutrient agar medium was first prepared by dissolving 38 g of Müeller–Hinton agar (MHA) (Biolab, Midrand, Africa) in distilled water (1 L). […] The cooled Agar medium was poured in Petri dishes while ensuring a uniform 4 mm depth of the medium and cooling further to ambient temperature.
(§2) These bacteria were inoculated in a sterilized Nutrient Broth (NB) (Biolab, Midrand, Africa) through streak plate technique and incubated at 37 °C for 18 h. The nutrient broth was sterilized by dissolving 1.3 g in distilled water (100 mL). Ca. 10 mL of the nutrient broth was transferred into a cotton wool-plugged test tubes and wrapped with an aluminium foil. […] Following this was the isolation of a single colony of the bacteria and inoculated into a 10 mL sterile NB which was then incubated in a shaking incubator at 37 °C for 18 h. Each of the bacteria strain concentrations was adjusted with sterile distilled water to get a final concentration of 1.5 × 10^8 cfu/mL, i.e., 0.5 Mc Farland’s Standard using a densitometer (Mc Farland Latvia). The bacteria were lawn inoculated on the set MHA Petri dishes using a sterile cotton swab. Screening of L1–L5 and Q1–Q15 for antibacterial activity was first carried out by spotting 5 µL of their solution (prepared from the dissolution of 1000 µg of the L1–L5 and Q1–Q15 in 1 mL dimethyl sulfoxide (DMSO)) on an MHA petri dish and incubated at 37 °C for 18 h. The antibacterial activity was determined by looking out for a clear zone at the spotting point.

[2] = Ferric reducing antioxidant power (FRAP) assay; assay type: biochemical; conditions: done in triplicate
Excerpt: Antioxidants are important in protecting the human body against damage by reactive oxygen species (ROS). Accumulation of ROS in the cells may lead to damage of the DNA, RNA, and proteins which subsequently leads to several physiological disorders such as cardiovascular disease, diabetes, rheumatism, atherosclerosis, cancer, aging and cell death. […] The free radical scavenging ability of all ligands and complexes in this study were investigated using ferric reducing antioxidant power (FRAP). In antioxidant studies, FRAP assay is often preferred because it is simple, fast, economical, and direct in antioxidant measurement. FRAP assay is based on the electron-donating ability of an antioxidant compound. This involves the reduction of a colorless Fe^3+ tripyridyltriazine complex (Fe^3+ (TPTZ)) to an intense blue-colored Fe^2+ tripyridyltriazine complex (Fe^2+ (TPTZ)) by the electron-donating antioxidants at low pH [69]. The reducing power is to determine the reductive ability of the test compounds.
Antioxidant activity studies of L1–L5 and Q1–Q15 were done using ferric reducing antioxidant power (FRAP) assay. The ferric reducing antioxidant power assay is often used to evaluate the ability of an antioxidant to donate an electron. […] The resulting mixture was incubated at 50 °C for 20 min, and 2.5 mL of 10% trichloroacetic acid was added to acidify the mixture. After that, 1 mL of the acidified mixture was added to 1 mL of distilled water and 0.5 mL of 0.1% FeCl3. The absorbance of the resulting solution was then measured at 700 nm. The antioxidant power of the compounds was expressed as a percentage of ferric reducing antioxidant power Ascorbic acid equivalent, as shown in Equation (4). (4) % FRAP =Absorbance of Absorbance of Sample/Absorbance of Ascorbic Acid ×100

[3] = test system: calf thymus DNA (CT-DNA); assay: CT-DNA electronic absorption titration (Wolfe–Shimer); assay type: binding; conditions: for CT-DNA-Cmp. Kb (M^−1) × 10^5: intrinsic binding constant, absorption titration, PBS pH 7.2
Procedure: The interaction of the L1–L5 and complexes Q1–Q15 with calf thymus-DNA was carried out in a Phosphate buffer saline solution pH 7.2 stored at 4 °C. The DNA stock solution was prepared by dissolving CT-DNA sodium salt in Phosphate buffer saline solution with continuous stirring overnight. It was filtered and stored at 4 °C and used within four days. […] A fixed amount of the L1–L5 and complexes Q1–Q15 (50 µM) were prepared by dissolving an appropriate amount in DMSO. […] Therefore, in all the experimental of the interaction of L1–L5 and complexes Q1–Q15 with biomolecules, the final concentration of DMSO in the incubation mixture was ~2% (v/v).
The binding modes of L1–L5 and complexes Q1–Q15 to CT-DNA were characterized through electronic absorption titration by varying concentrations of CT-DNA (0–30 µM) in phosphate buffer saline solution against fixed concentrations (20 µM) of L1–L5 and complexes Q1–Q15. […] The absorbance of CT-DNA is cancelled by adding equivalent amounts of CT-DNA to both the tested compounds and the reference solutions.

[4] = test system: Escherichia coli ATCC 25922; assay: Minimum inhibitory concentration (MIC), spotting on Müeller–Hinton agar; assay type: cell-based; conditions: Gram − Ve, E. coli, 37 °C, 18 h
Procedure: as §1, §2

[5] = test system: Salmonella typhimurium ATCC 14026; assay: as above; assay type: cell-based; conditions: Gram − Ve, S. typhi, 37 °C, 18 h; for MIC: Salmonella enterica, read-out: Minimum inhibitory concentration, ST
Procedure: as §1, §2

[6] = test system: Staphylococcus aureus ATCC 700699 (methicillin-resistant); assay: as above; assay type: cell-based; conditions: Gram + Ve, methicillin-resistant S. aureus, 37 °C, 18 h
Procedure: as §1, §2

[7] = test system: CT-DNA-EB adduct; assay: Fluorescence competitive displacement of ethidium bromide from CT-DNA; assay type: binding, calf; conditions: for CT-DNA-EB-Complex Ksv (M^−1) × 10^4: Stern–Volmer quenching constant, EB displacement, 25 °C; for CT-DNA-EB-Complex Kq (M^−1S^−1) × 10^12: bimolecular quenching constant, Ksv = Kqτo, τo 10^−8 s; for CT-DNA-EB-Complex Kbin (M^−1) × 10^5: binding constant from double-logarithmic plot
Excerpt: The Stern–Volmer plot approach was used based on the fact that the Stern–Volmer plots for Q1–Q15 (Figure 5c), were linear an indication of only one mechanism for the quenching fluorescence, i.e., either dynamic or static. […] (1) Ksv=Kqτo where Ksv, Kq, and τo represent Stern–Volmer quenching constant, bimolecular quenching constant, and an average lifetime of the fluorophore in the absence of the quencher, respectively. τₒ normally takes about 10^−8 s in biomacromolecules.
The double-logarithmic Equation (2) was used in determining the binding constant of complexes Q1–Q15 and CT-DNA. (2) logFo−F/F=logKb+n logQ
A competitive displacement study was carried out using fluorescence spectroscopy between CT-DNA pre-treated with ethidium bromide (EB) and complexes Q1–Q15 to establish the complexes′ actual mode of binding to CT-DNA. […] The competitive luminescence displacement assay was done using a modified method. Pre-treated 15 µM solution of EB with 15 µM of CT-DNA was prepared in a phosphate buffer of pH 7.2 and left to equilibrate for 30 min. Keeping CT-DNA-EB concentrations constant, different concentrations (0–20 µM) of the complexes were added at 8 min incubation interval at room temperature. The fluorescence quenching ability of CT-DNA bound EB by the complexes were recorded in the wavelength range of 530–700 nm with an excitation wavelength at 525 nm at 25 °C. (6) Fo/F=1+KSVQ=1+KqτoQ
A Stern–Volmer (Equation (6)) was used to evaluate the CT-DNA-EB fluorescence quenching of the complexes. Where Fo and F denote the relative fluorescence intensities of CT-DNA in the absence and presence of the quencher, Ksv, Stern–Volmer quenching constant, [Q], quencher concentration, Kq, bimolecular quenching constant and τo, average lifetime of the fluorophore in the absence of the quencher which is typically equal to 10^−8 s in biomacromolecules.

[8] = molecular target: bovine serum albumin (BSA) (Bos taurus, UniProt P02769); assay: Albumin binding by absorption spectroscopy titration
Chain of bovine serum albumin (BSA) (P02769 25-607): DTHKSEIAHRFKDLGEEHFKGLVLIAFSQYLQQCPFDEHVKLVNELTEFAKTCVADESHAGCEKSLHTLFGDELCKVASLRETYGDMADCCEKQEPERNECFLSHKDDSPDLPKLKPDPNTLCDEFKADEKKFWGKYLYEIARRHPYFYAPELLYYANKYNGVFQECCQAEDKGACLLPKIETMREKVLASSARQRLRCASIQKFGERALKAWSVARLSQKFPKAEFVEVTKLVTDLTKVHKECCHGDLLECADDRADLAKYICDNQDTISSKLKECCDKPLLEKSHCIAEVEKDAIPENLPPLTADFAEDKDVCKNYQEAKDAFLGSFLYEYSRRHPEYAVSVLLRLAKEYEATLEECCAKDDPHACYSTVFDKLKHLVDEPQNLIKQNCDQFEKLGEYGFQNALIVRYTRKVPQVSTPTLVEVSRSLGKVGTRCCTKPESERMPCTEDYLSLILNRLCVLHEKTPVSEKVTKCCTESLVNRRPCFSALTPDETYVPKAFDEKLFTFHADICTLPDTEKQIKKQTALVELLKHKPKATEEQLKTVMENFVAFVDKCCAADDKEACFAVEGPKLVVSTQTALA
Excerpt: Bovine serum albumin (BSA) was used as the protein standard in this study because of its close resemblance to human serum albumin (HSA), its stability, high solubility, neutrality in many biochemical reactions and low cost. In protein binding study, absorption spectroscopy titration is a known method used in studying the conformational changes in proteins, and this protein is characterized by an intense absorbance peak at 280 nm depicting the microenvironment around tyrosine and tryptophan residue polarity.
The absorbance assay of albumin binding is a very simple method used in identifying the conformational changes in protein. […] A stock solution of bovine serum albumin (BSA) was prepared by dissolving an appropriate amount of BSA in phosphate buffer saline solution (pH 7.2) under constant stirring for 1 h at 25 °C. It was kept at 4 °C and used within four days. […] The stock solution of the complex was prepared by dissolving 1 mmol of the complexes in DMSO. The absorption titration assay was done by adding different concentrations (0–10 µM) of the complexes to a constant BSA concentration (6 µM). The sample solution was incubated after each addition of the concentrations for 10 min at 25 °C before recording the absorbance at λmax 280 nm.

SMILES	Minimum inhibitory concentration, PA [1] [mg/L]	MIC [1] [mg/L]	Antioxidant (IC50 mg/mL) FRAP [2] [mg/mL]	CT-DNA-Cmp. Kb (M^−1) × 10^5 [3]	Minimum inhibitory concentration, EC [4] [mg/L]	Minimum inhibitory concentration, ST [5] [mg/L]	Minimum inhibitory concentration, MRSA [6] [mg/L]	CT-DNA-EB-Complex Ksv (M^−1) × 10^4 [7]	CT-DNA-EB-Complex Kq (M^−1S^−1) × 10^12 [7]	CT-DNA-EB-Complex Kbin (M^−1) × 10^5 [7]	Protein-Complex Kb (M^−1) × 10^4 [8]	hypochromic shift in the absorption bands on addition of CT-DNA ([3]; absorption titration with CT-DNA)	MIC ([6]; Staphylococcus aureus, ATCC 700699 / MRSA) [mg/L]	MIC [5] [mg/L]	MIC ([4]; Escherichia coli, ATCC25922, read-out: Minimum inhibitory concentration, EC) [mg/L]
c1ccc2nc(-c3nc4ccccc4s3)ccc2c1 [Complex L2, 2-(quinolin-2-yl)benzo[d]thiazole]	100	50 to 100	2.29 ± 0.0041	1.50 (M^−1) × 10^5											
O=S(=O)([O-])C(F)(F)F.[Ag+].c1ccc2nc(-c3nc4ccccc4s3)ccc2c1.c1ccc2nc(-c3nc4ccccc4s3)ccc2c1 [Complex Q12, [Ag(L2)2]CF3SO3]	12.5		1.86 ± 0.024	4.50 (M^−1) × 10^5	25	50	50	3.14 (M^−1) × 10^4	3.14 (M^−1S^−1) × 10^12	2.12 (M^−1) × 10^5	20.7 (M^−1) × 10^4				
O=S(=O)([O-])C(F)(F)F.[Ag+] [AgCF3SO3, silver trifluoromethanesulfonate, reference compound]	1000		0.88 ± 0.054	2.00 (M^−1) × 10^5	50	12.5	1000	3.01 (M^−1) × 10^4	3.01 (M^−1S^−1) × 10^12	1.60 (M^−1) × 10^5	4.46 (M^−1) × 10^4	23.64–50.86%			
O=C1O[C@H]([C@@H](O)CO)C(O)=C1O [Ascorbic Acid, Ascorbic acid, reference compound]			2.68 ± 0.11												
Clc1ccc(/N=C/c2ccc3ccccc3n2)cc1 [Complex L3, (E)-N-(4-chlorophenyl)-1-(quinolin-2-yl)methanimine]	100	50 to 100	20.35 ± 0.0047										1000		
C(=N\Cc1cccs1)/c1ccc2ccccc2n1 [Complex L5, (E)-1-(quinolin-2-yl)-N-(thiophen-2-ylmethyl)methanimine]		100	3.79 ± 0.0052	1.17 (M^−1) × 10^5										50	
Cc1ccc(N=Cc2ccc3ccccc3n2)cc1.Cc1ccc(N=Cc2ccc3ccccc3n2)cc1.O=[N+]([O-])[O-].[Ag+] [Complex Q4, [Ag(L4)2]NO3]	12.5		2.14 ± 0.0035	4.00 (M^−1) × 10^5	12.5	50	50	3.50 (M^−1) × 10^4	3.50 (M^−1S^−1) × 10^12	2.11 (M^−1) × 10^5	10.3 (M^−1) × 10^4				
Cc1ccc(/N=C/c2ccc3ccccc3n2)cc1 [Complex L4, (E)-1-(quinolin-2-yl)-N-(p-tolyl)methanimine]			4.50 ± 0.0053	1.60 (M^−1) × 10^5										1000	1000
